According to US20240262795A1, “PYRAZINE COMPOUNDS AS INHIBITORS OF FLT3” (Biomea Fusion, Inc., priority 2021, published 2024):

Tests used:
MV-4-11 = assay: Proliferation inhibition, CellTiter-Glo, MV-4-11; type: cell-based, human; settings: Homo sapiens, MV4-11, 96 h; MV-4:11 cells, IC50 (4 days), CellTiter-Glo; read-out: MV-4:11 IC50
Procedure, shortened: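 About 10,000 cells per well in RPMI-1640 with 10% FBS. Compounds added 2 h after seeding at eight concentrations in duplicate (0.2% DMSO as 100% proliferation), then incubated ~96 h at 37° C, 5% CO2. ATP measured by CellTiter-Glo luminescence; IC50 from four-parameter logistic fit.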

FLT3-ITD = molecular target: T1, FLT3-ITD (Homo sapiens, UniProt P36888, DUP595-601); assay: FLT3-ITD Lance Ultra TR-FRET kinase assay; type: biochemical
T1 construct: purchased Signalchem F-12-12CG-10
T1 sequence (P36888 with tags, fused parts or gaps DUP595-601 limits assumed): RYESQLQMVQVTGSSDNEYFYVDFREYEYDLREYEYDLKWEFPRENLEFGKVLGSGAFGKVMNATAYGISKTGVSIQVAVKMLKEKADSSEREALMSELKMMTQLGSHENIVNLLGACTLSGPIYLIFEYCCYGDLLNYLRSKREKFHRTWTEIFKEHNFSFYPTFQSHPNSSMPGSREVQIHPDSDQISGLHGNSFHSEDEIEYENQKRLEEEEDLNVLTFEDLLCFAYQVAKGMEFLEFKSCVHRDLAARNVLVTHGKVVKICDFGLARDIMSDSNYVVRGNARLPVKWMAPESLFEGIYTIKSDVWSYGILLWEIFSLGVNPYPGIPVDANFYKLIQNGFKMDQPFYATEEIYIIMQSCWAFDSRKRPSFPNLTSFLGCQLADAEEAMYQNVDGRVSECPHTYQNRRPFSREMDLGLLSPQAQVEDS
Procedure, shortened: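 Lance Ultra TR-FRET with 50 nM ULight-JAK-1 (Tyr1023) peptide, Eu-anti-phosphotyrosine (PT66) detection, in HEPES pH 7.5 buffer at 23° C, 30 min enzyme/compound preincubation. WT: 0.5 nM enzyme, 100 μM ATP, 30 min; ITD: 0.0625 nM, 50 μM ATP, 60 min. IC50 by four-parameter fit of 11-point 3× dilutions.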

| Compound | IC50 (MV-4-11) | IC50 (FLT3-ITD) |
| --- | --- | --- |
| CCc1nc(C(N)=O)c(Nc2cccc(CCNC(=O)[C@H](C)N(C)C(=O)/C=C/CN(C)C)c2)nc1N(C)C(C)C [Compound 204, (S,E)-3-((3-(2-(2-(4-(dimethylamino)-N-methylbut-2-enamido)propanamido)ethyl)phenyl)amino)-6-ethyl-5-(isopropyl(methyl)amino)pyrazine-2-carboxamide] | < 1 nM | 0.101 to 0.2 nM |
| CCc1nc(C(N)=O)c(Nc2cccc(CCNC(=O)[C@H](C)N(C)C(=O)/C=C/CN(C)C)c2)nc1NC(C)C [Compound 205, (S,E)-3-((3-(2-(2-(4-(dimethylamino)-N-methylbut-2-enamido)propanamido)ethyl)phenyl)amino)-6-ethyl-5-(isopropylamino)pyrazine-2-carboxamide] | < 1 nM | 0.101 to 0.2 nM |
| CCc1nc(C(N)=O)c(Nc2cccc(CCNC(=O)CN(C)C(=O)/C=C/CN(C)C)c2)nc1C1CC1 [Compound 219, (E)-5-cyclopropyl-3-((3-(2-(2-(4-(dimethylamino)-N-methylbut-2-enamido)acetamido)ethyl)phenyl)amino)-6-ethylpyrazine-2-carboxamide] | < 1 nM | – |
| Cc1nc(C(N)=O)c(Nc2cccc(CCNC(=O)[C@H](C)N(C)C(=O)/C=C/CN(C)C)c2)nc1N(C)C(C)C [Compound 232, (S, E)-3-((3-(2-(2-(4-(dimethylamino)-N-methylbut-2-enamido)propanamido)ethyl)phenyl)amino)-5-(isopropyl (methyl)amino)-6-methylpyrazine-2-carboxamide] | < 1 nM | 0.501 to 1 nM |
| Cc1nc(C(N)=O)c(Nc2cccc(CCNC(=O)CN(C)C(=O)/C=C/CN(C)C)c2)nc1N(C)C(C)C [Compound 250, (E)-3-((3-(2-(2-(4-(dimethylamino)-N-methylbut-2-enamido)acetamido)ethyl)phenyl)amino)-5-(isopropyl(methyl)amino)-6-methylpyrazine-2-carboxamide] | < 1 nM | 0.201 to 0.5 nM |
| CCc1nc(C(N)=O)c(Nc2cccc(CCNC(=O)CN(C)C(=O)/C=C/CN(C)C)c2)nc1N(C)CC [Compound 252, (E)-3-((3-(2-(2-(4-(dimethylamino)-N-methylbut-2-enamido)acetamido)ethyl)phenyl)amino)-6-ethyl-5-(ethyl (methyl)amino) pyrazine-2-carboxamide] | < 1 nM | 0.101 to 0.2 nM |
| CCc1nc(C(N)=O)c(Nc2cccc(CCNC(=O)[C@H](C)N(C)C(=O)/C=C/CNC)c2)nc1N(C)C(C)C [Compound 307, (S,E)-6-ethyl-5-(isopropyl(methyl)amino)-3-((3-(2-(2-(N-methyl-4-(methylamino)but-2-enamido)propanamido)ethyl)phenyl)amino)pyrazine-2-carboxamide] | < 1 nM | 0.201 to 0.5 nM |
| CCc1nc(C(N)=O)c(Nc2ccnc(CCNC(=O)[C@H](C)N(C)C(=O)/C=C/CN(C)C)c2)nc1C1CC1 [Compound 310, (S,E)-5-cyclopropyl-3-((2-(2-(2-(4-(dimethylamino)-N-methylbut-2-enamido)propanamido)ethyl)pyridin-4-yl)amino)-6-ethylpyrazine-2-carboxamide] | < 1 nM | 0.501 to 1 nM |
| CCc1nc(C(N)=O)c(Nc2cccc([C@@H](C)CNC(=O)CN(C)C(=O)/C=C/CN(C)C)c2)nc1C1CC1 [Compound 504, (R,E)-5-cyclopropyl-3-((3-(1-(2-(4-(dimethylamino)-N-methylbut-2-enamido)acetamido)propan-2-yl)phenyl)amino)-6-ethylpyrazine-2-carboxamide] | < 1 nM | – |
| CCc1nc(C(N)=O)c(Nc2cccc([C@@H](C)CNC(=O)CN(C)C(=O)/C=C/CN3CCC3)c2)nc1C1CC1 [Compound 506, (R,E)-3-((3-(1-(2-(4-(azetidin-1-yl)-N-methylbut-2-enamido)acetamido)propan-2-yl)phenyl)amino)-5-cyclopropyl-6-ethylpyrazine-2-carboxamide] | 1 to 10 nM | 0.201 to 0.5 nM |

More lines, now with the values ahead:

| IC50 (MV-4-11) | IC50 (FLT3-ITD) | Compound |
| --- | --- | --- |
| 1 to 10 nM | 0.201 to 0.5 nM | CCCc1nc(Nc2cccc([C@@H](C)CNC(=O)CN(C)C(=O)/C=C/CN3CCC3)c2)c(C(N)=O)nc1CC [Compound 507, (R,E)-3-((3-(1-(2-(4-(azetidin-1-yl)-N-methylbut-2-enamido)acetamido)propan-2-yl)phenyl)amino)-6-ethyl-5-propylpyrazine-2-carboxamide] |
| > 500 nM | 0.501 to 1 nM | CCc1nc(Nc2cccc([C@@H](C)CNC(=O)CN(C)C(=O)/C=C/CN3CCC3)c2)c(C(N)=O)nc1CC [Compound 508, (R, E)-3-((3-(1-(2-(4-(azetidin-1-yl)-N-methylbut-2-enamido)acetamido)propan-2-yl)phenyl)amino)-5,6-diethylpyrazine-2-carboxamide] |
| 1 to 10 nM | 0.101 to 0.2 nM | CCc1nc(C(N)=O)c(Nc2cc(F)cc(CCNC(=O)CN(C)C(=O)/C=C/CN3CCC3)c2)nc1C1CC1 [Compound 516, (E)-3-((3-(2-(2-(4-(azetidin-1-yl)-N-methylbut-2-enamido)acetamido)ethyl)-5-fluorophenyl)amino)-5-cyclopropyl-6-ethylpyrazine-2-carboxamide] |
| < 1 nM | 0.101 to 0.2 nM | CCc1nc(C(N)=O)c(Nc2cccc(CCNC(=O)CN(C)C(=O)/C=C/CN3CCC3)c2)nc1N(C)CC [Compound 516A, (E)-3-((3-(2-(2-(4-(azetidin-1-yl)-N-methylbut-2-enamido)acetamido)ethyl)phenyl)amino)-6-ethyl-5-(ethyl(methyl)amino) pyrazine-2-carboxamide] |
| < 1 nM | 0.101 to 0.2 nM | CCc1nc(C(N)=O)c(Nc2cccc([C@@H](C)CNC(=O)CN(C)C(=O)/C=C/CN3CCC3)c2)nc1N(C)CC [Compound 518, (R,E)-3-((3-(1-(2-(4-(azetidin-1-yl)-N-methylbut-2-enamido)acetamido)propan-2-yl)phenyl)amino)-6-ethyl-5-(ethyl(methyl)amino)pyrazine-2-carboxamide] |
| < 1 nM | 0.201 to 0.5 nM | CCOc1nc(Nc2cccc(CCNC(=O)CN(C)C(=O)/C=C/CN3CCC3)c2)c(C(N)=O)nc1CC [Compound 602, (E)-3-((3-(2-(2-(4-(azetidin-1-yl)-N-methylbut-2-enamido)acetamido)ethyl)phenyl)amino)-5-ethoxy-6-ethylpyrazine-2-carboxamide] |
| < 1 nM | 0.201 to 0.5 nM | CCc1nc(C(N)=O)c(Nc2cccc(CCNC(=O)CN(C)C(=O)/C=C/CN3CCC3)c2)nc1OC(C)C [Compound 603, (E)-3-((3-(2-(2-(4-(azetidin-1-yl)-N-methylbut-2-enamido)acetamido)ethyl)phenyl)amino)-6-ethyl-5-isopropoxypyrazine-2-carboxamide] |
| < 1 nM | 0.201 to 0.5 nM | CCc1nc(C(N)=O)c(Nc2ccnc(CCNC(=O)[C@H](C)N(C)C(=O)/C=C/CN(C)C)c2)nc1N(C)C(C)C [Compound 605, (S, E)-3-((2-(2-(2-(4-(dimethylamino)-N-methylbut-2-enamido)propanamido)ethyl)pyridin-4-yl)amino)-6-ethyl-5-(isopropyl (methyl)amino) pyrazine-2-carboxamide] |
| 1 to 10 nM | – | CCc1nc(C(N)=O)c(Nc2ccc(N3CCC(N4CCN(C)CC4)CC3)c(OC)c2)nc1NC1CCOCC1 [Gilteritinib, gilteritinib, reference compound] |
